# Where two headings read alike, the source gives them in different places.
# Key:
# NET [1] = biological target: T1, NET (Rattus norvegicus, UniProt Q63380); assay: [3H]NE uptake inhibition in rat brain synaptosomes
# [2] = biological target: T2, Human serotonin 5HT2B receptor (Homo sapiens, UniProt P41595); conditions: read-out: Ki (reported); reported values; cited from earlier work
# 5HT2C receptor [3] = biological target: T3, 5HT2C receptor (Homo sapiens, UniProt P28335); assay: GPCRmax screen, antagonist mode, 5HT2C; format: cell-based; conditions: 1 or 10 mM
# T3 construct: host or cells: PathHunter cell lines
# SERT [4] = biological target: T4, SERT (Rattus norvegicus, UniProt P31652); assay: [3H]5-HT uptake inhibition in rat brain synaptosomes
# [5] = depending on the animal model and dosing conditions; cited from earlier work
# DAT [6] = biological target: T5, DAT (Rattus norvegicus, UniProt P23977); assay: [3H]DA uptake inhibition in rat brain synaptosomes
# DAT [7] = biological target: T5, DAT; assay: [3H]DA release from rat brain synaptosomes; format: biochemical; parameters: from tissue; synaptosomes for uptake and release
# Method: (§1) Test compounds and synaptosomes were prepared as described for uptake inhibition assays. Synaptosomes treated with [^3H]5-HT, [^3H]DA or [^3H]NE were loaded onto filter chambers containing GF/C filters and placed in a superfusion system. Oxygenated Krebs buffer was perfused through the chambers at a rate of 1.5 mL/minute at 35° C. using either an 8-channel or a 12-channel peristaltic pump. Trapped air bubbles were removed from the filters prior to collecting fractions to ensure an even flow over the synaptosomal bed. After a superfusion period of 45 minutes, 2 basal fractions were collected followed by 6 fractions following the addition of the test drug. […] Scintillation cocktail was added, and the filters counted to determine residual radioactivity. Drug-evoked release of neurotransmitter was calculated by subtracting the average of the two basal fractions (collected prior to the drug addition), from the four fractions collected in the presence of drug. The drug-evoked release was then expressed as a percentage of the basal release. Potassium-evoked release was calculated by subtracting the average of two fractions collected prior to the addition of high KCl buffer from that in the two fractions following addition of high KCl buffer. Potassium-stimulated release was calculated as a percentage of basal release. […]
# 5HT2C receptor [8] = biological target: T3, 5HT2C receptor; assay: GPCRmax screen, agonist mode, 5HT2C; format: cell-based; conditions: 1 or 10 mM
# [9] = tested on: myelin basic protein (MBP); assay: Myelin basic protein immunohistochemistry in amygdala; format: in vivo, rat; conditions: 10 mg/kg IP, 24 h
# Method: Immunohistochemistry: The in-life portion of the study was conducted at WuXi Apptec (Cranbury, NJ). Sectioning and staining of brains took place at Neuroscience Associates (NSA, Knoxville, TN). […] Brains were post-fixed in PFA before shipment to NSA for processing and staining. Hemisected brains were mounted, sectioned and stained using standard protocols with myelin-basic protein primary antibody (MBP SMI-99, 1:5000, Biolegend, San Diego, CA) and anti-mouse biotinylated secondary antibody (BA-2001, Vector Laboratories, Newark, CA). Slides were imaged using a Huron Digital Pathology TissueScope LE120 whole slide scanning system. 20× objective was used with a 0.4 μm/pixel resolution.
# NET [10] = biological target: T1, NET; assay: [3H]NE release from rat brain synaptosomes; format: biochemical; parameters: from tissue; synaptosomes for uptake and release
# Method: as §1
# [11] = 13 of 77 deaths, meta-analysis; cited from earlier work
# [12] = cited from earlier work
# [13] = tested on: gene expression in amygdala, frontal cortex, hippocampus; assay: RNA-sequencing of rat brain areas after a single dose; format: in vivo
# 5HT2A receptor = biological target: T6, 5HT2A receptor (Homo sapiens, UniProt P28223); assay: GPCRmax screen, agonist mode, 5HT2A; format: cell-based; conditions: 1 or 10 mM
# T6 construct: host or cells: PathHunter cell lines
# [14] = 7.5 mg/kg 30 minutes prior to extinction training (Young 2015); cited from earlier work
# [15] = biological target: T2, Human serotonin 5HT2B receptor; assay: Competitive radioligand binding to 5HT2B receptor membranes
# Method: Human serotonin 5HT2B receptor membrane preparations were divided into aliquots. On the day of the assay, membranes were diluted at 1:200 in incubation buffer. […] To each well was added 150 μL membrane preparation, 50 μL test compound, non-specific compound, or buffer alone, as well as 50 μL radioligand. The plate was incubated at 35° C. for 90 minutes with gentle agitation. […] For each concentration of drug, non-specific binding was subtracted from total binding to give specific binding. […] Ki was subsequently calculated using the ChengPrusoff equation.
# SERT [16] = biological target: T4, SERT; assay: [3H]5-HT release from rat brain synaptosomes; format: biochemical; parameters: from tissue; synaptosomes for uptake and release
# Method: as §1
# T3 sequence (P28335 33-458): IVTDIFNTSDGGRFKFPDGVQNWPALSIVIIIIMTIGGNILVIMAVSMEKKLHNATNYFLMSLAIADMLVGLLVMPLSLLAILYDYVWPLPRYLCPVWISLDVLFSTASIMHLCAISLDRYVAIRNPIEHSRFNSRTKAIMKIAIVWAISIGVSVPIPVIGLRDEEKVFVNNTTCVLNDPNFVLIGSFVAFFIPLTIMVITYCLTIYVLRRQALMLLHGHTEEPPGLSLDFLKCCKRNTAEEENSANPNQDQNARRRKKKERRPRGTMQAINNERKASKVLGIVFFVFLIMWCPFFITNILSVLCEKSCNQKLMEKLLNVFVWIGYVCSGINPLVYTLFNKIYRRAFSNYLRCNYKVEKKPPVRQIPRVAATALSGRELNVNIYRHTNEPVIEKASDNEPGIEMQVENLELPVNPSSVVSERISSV
# T4 sequence (P31652 whole entry): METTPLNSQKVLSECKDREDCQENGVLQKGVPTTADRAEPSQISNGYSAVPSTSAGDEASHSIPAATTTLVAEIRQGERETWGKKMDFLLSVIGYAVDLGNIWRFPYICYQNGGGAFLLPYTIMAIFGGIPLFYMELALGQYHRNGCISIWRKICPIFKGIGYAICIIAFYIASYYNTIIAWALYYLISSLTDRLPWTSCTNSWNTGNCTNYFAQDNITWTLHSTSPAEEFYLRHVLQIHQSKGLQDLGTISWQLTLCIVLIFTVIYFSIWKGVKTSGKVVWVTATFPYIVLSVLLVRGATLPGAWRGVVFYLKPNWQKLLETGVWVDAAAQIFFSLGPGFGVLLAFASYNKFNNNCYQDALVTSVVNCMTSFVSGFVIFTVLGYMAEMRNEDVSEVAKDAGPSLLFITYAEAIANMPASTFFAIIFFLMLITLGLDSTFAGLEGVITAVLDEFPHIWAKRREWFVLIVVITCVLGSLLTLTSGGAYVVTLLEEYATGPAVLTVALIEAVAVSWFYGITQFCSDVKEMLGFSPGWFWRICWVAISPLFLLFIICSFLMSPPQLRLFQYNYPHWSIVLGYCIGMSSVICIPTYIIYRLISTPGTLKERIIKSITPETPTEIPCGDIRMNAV
# T2 sequence (P41595 whole entry): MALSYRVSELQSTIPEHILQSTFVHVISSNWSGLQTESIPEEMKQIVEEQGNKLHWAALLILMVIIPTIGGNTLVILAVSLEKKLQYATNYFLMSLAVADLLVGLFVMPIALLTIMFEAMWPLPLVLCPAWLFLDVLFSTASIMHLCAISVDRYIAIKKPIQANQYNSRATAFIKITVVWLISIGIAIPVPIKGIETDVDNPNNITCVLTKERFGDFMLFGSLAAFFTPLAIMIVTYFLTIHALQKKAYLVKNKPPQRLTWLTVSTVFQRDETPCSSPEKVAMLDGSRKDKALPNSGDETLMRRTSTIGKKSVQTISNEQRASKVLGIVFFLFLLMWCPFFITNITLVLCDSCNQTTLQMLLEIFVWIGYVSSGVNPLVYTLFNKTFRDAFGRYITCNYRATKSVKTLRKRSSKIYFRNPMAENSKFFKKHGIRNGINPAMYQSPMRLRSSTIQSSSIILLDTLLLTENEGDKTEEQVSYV
# T1 sequence (Q63380 1-617): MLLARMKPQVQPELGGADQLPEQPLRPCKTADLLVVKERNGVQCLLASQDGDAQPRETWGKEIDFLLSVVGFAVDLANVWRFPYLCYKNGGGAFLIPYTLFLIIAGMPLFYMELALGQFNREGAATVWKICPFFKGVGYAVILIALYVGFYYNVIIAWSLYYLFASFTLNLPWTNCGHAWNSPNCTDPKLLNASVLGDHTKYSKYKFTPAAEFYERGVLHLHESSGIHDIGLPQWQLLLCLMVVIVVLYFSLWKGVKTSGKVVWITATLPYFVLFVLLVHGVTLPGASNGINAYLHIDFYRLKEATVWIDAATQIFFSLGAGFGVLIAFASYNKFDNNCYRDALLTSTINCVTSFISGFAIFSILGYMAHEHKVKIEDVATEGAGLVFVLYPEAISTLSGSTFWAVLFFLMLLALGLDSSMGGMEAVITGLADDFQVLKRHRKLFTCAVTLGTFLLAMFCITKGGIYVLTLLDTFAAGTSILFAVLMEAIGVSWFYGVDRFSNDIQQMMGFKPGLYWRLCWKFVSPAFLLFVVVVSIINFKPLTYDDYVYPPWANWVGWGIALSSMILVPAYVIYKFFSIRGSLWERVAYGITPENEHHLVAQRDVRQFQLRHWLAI
# T5 sequence (P23977 whole entry): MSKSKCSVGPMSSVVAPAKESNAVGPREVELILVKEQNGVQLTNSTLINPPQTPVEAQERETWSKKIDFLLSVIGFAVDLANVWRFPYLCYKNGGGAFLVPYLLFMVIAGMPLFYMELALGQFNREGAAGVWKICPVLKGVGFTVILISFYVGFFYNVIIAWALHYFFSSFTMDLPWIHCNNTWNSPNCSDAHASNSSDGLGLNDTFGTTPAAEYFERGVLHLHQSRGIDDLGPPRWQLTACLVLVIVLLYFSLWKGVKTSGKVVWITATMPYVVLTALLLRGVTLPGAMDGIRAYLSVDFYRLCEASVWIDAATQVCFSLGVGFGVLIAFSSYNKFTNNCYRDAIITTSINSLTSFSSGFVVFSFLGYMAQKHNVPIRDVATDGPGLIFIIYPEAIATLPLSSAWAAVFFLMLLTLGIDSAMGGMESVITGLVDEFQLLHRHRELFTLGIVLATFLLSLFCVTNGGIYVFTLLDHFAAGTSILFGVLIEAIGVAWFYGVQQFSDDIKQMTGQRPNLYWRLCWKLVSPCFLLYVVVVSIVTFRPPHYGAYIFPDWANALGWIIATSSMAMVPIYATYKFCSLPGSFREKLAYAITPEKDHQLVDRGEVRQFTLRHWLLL
# T6 sequence (P28223 whole entry): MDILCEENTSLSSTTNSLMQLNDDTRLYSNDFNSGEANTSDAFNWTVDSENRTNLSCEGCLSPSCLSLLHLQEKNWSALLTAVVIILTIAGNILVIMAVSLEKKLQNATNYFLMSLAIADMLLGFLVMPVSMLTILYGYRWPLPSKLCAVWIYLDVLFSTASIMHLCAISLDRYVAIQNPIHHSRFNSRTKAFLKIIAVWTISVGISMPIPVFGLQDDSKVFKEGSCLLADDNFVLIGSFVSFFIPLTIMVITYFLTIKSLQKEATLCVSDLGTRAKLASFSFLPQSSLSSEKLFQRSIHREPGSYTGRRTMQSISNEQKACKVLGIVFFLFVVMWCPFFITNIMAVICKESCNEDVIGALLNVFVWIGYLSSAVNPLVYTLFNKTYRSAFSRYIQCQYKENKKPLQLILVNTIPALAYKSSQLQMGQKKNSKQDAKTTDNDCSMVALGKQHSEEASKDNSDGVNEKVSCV
smiles,measurement,setting,value
"CNC(C)Cc1ccc2c(c1)OCO2 (racemic) [MDMA, 3,4-Methylenedioxymethamphetamine]",IC50,NET [1],120 nM
same,Ki,[2],500 nM
same,Antagonist % inhibition,5HT2C receptor [3],52.2%
same,IC50,SERT [4],1800 nM
same,half-life,[5],5 to 7 h
same,IC50,DAT [6],2500 nM
same,EC50,DAT [7],1420 nM
same,Agonist % activity,5HT2C receptor [8],28.0%
same,MBP in basolateral and central nuclei of the amygdala vs. vehicle,[9],significant reduction in MBP
same,EC50,NET [10],490 nM
same,Blood concentrations in deaths attributable to MDMA alone,[11],478 to 53900 ng/mL
same,Reduction in immobility in the FST,"[12]; 5 mg/kg, Flinders Sensitive Line rats",45%
same,Reduction in immobility in the FST,"[12]; 5 mg/kg, Sprague Dawley rats (Majumder 2011)",45%
same,Reduction in immobility in the FST,"[12]; 10 mg/kg, Flinders Sensitive Line rats",93%
same,Reduction in immobility in the FST,"[12]; 10 mg/kg, Sprague Dawley rats (Majumder 2011)",78%
same,Additional genes significantly regulated by MDMA only,[13]; amygdala,1313 genes
same,Genes downregulated by MDMA only,[13]; amygdala,774 genes
same,Genes regulated by MDMA that are also regulated by methylone,[13]; amygdala,7%
same,Genes upregulated by MDMA only,[13]; amygdala,539 genes
same,Genes regulated by both treatments,[13]; frontal cortex,154 genes
same,More genes regulated than methylone,[13]; frontal cortex,~72%
same,Genes significantly regulated,"[13]; frontal cortex, 10 mg/kg IP (Example 27)",825 genes
same,Agonist % activity,5HT2A receptor,27.5%
same,Reduced freezing vs. saline (extinction recall),[14],35%
same,Times greater affinity for the 5HT2B receptor compared with methylone,[15],7.5 times
same,EC50,SERT [16],160 nM
